Test: Toxicokinetics of S9229 in the 28-day rat study
Type: in vivo, Sprague-Dawley rats
Conditions: for AUC0-24hr Ratio / Cmax Ratio: vs 10 mg/kg dose; for AUC(0-t) / Cmax / Tmax / half-life: rat, plasma, po; for AUC(0-t): AUC0-24hr
[1] = female, Sprague-Dawley (Crl:CD(SD)), 10 mg/kg, Day 1, 10 mg/kg bw, F
[2] = female, Sprague-Dawley (Crl:CD(SD)), 30 mg/kg, Day 1, 30 mg/kg bw, F
[3] = female, Sprague-Dawley (Crl:CD(SD)), 100 mg/kg, Day 1, 100 mg/kg bw, F
[4] = female, Sprague-Dawley (Crl:CD(SD)), 100 mg/kg, Day 28, 100 mg/kg bw, F
[5] = female, Sprague-Dawley [Crl:CD(SD)], 10 mg/kg, Day 28, 10 mg/kg bw, F
[6] = female, Sprague-Dawley [Crl:CD(SD)], 30 mg/kg, Day 28, 30 mg/kg bw, F
[7] = male, Sprague-Dawley (Crl:CD(SD)), 10 mg/kg, Day 1, 10 mg/kg bw, M
[8] = male, Sprague-Dawley (Crl:CD(SD)), 10 mg/kg, Day 28, 10 mg/kg bw, M
[9] = male, Sprague-Dawley (Crl:CD(SD)), 30 mg/kg, Day 1, 30 mg/kg bw, M
[10] = male, Sprague-Dawley (Crl:CD(SD)), 100 mg/kg, Day 1, 100 mg/kg bw, M
[11] = male, Sprague-Dawley (Crl:CD(SD)), 100 mg/kg, Day 28, 100 mg/kg bw, M
[12] = male, Sprague-Dawley [Crl:CD(SD)], 30 mg/kg, Day 28, 30 mg/kg bw, M

## COC[C@@H](CC(C)C)NC(=O)c1ccc(C)c(C)c1 [S9229, (R)-N-(1-methoxy-4-methylpentan-2-yl)-3,4-dimethylbenzamide]
Day 1, 10 mg/kg bw, F
  AUC0-24hr Ratio: 1
  Cmax Ratio: 1
Day 1, 10 mg/kg bw, M
  AUC0-24hr Ratio: 1
  Cmax Ratio: 1
Day 1, 30 mg/kg bw, F
  AUC0-24hr Ratio: 1.11
  Cmax Ratio: 0.55
Day 1, 30 mg/kg bw, M
  AUC0-24hr Ratio: 6.62
  Cmax Ratio: 7.06
Day 1, 100 mg/kg bw, F
  AUC0-24hr Ratio: 23.4
  Cmax Ratio: 22.8
Day 1, 100 mg/kg bw, M
  AUC0-24hr Ratio: 48.3
  Cmax Ratio: 61.8
Day 28, 10 mg/kg bw, F
  AUC0-24hr Ratio: 1
  Cmax Ratio: 1
Day 28, 10 mg/kg bw, M
  AUC0-24hr Ratio: 1
  Cmax Ratio: 1
Day 28, 30 mg/kg bw, F
  AUC0-24hr Ratio: 6.90
  Cmax Ratio: 4.85
Day 28, 30 mg/kg bw, M
  AUC0-24hr Ratio: 10.4
  Cmax Ratio: 5.67
Day 28, 100 mg/kg bw, F
  AUC0-24hr Ratio: 68.6
  Cmax Ratio: 57.2
Day 28, 100 mg/kg bw, M
  AUC0-24hr Ratio: 71.1
  Cmax Ratio: 33.6
[1]
  AUC(0-t): 11.4 ± 11.1 ng·h/mL
  Cmax: 15.6 ± 17 ng/mL
  Tmax: 0.5 h
[2]
  AUC(0-t): 12.6 ± 2.8 ng·h/mL
  Cmax: 8.6 ± 2.6 ng/mL
  Tmax: 0.5 h
female, Sprague-Dawley (Crl:CD(SD)), 30 mg/kg, Day 28, 30 mg/kg bw, F
  Tmax: 1 h
female, Sprague-Dawley (Crl:CD(SD)), 30 mg/kg, t1/2, Day 1, 30 mg/kg bw, F
  half-life: 0.95 ± 0.48 h
female, Sprague-Dawley (Crl:CD(SD)), 30 mg/kg, t1/2, Day 28, 30 mg/kg bw, F
  half-life: 2.16 ± 1.3 h
[3]
  AUC(0-t): 267 ± 174 ng·h/mL
  Cmax: 356 ± 256 ng/mL
  Tmax: 0.5 h
[4]
  AUC(0-t): 144 ± 45.1 ng·h/mL
  Cmax: 74.4 ± 31.7 ng/mL
  Tmax: 1 h
female, Sprague-Dawley (Crl:CD(SD)), 100 mg/kg, t1/2, Day 1, 100 mg/kg bw, F
  half-life: 0.97 ± 0.36 h
female, Sprague-Dawley (Crl:CD(SD)), 100 mg/kg, t1/2, Day 28, 100 mg/kg bw, F
  half-life: 0.98 ± 0.1 h
[5]
  AUC(0-t): 2.1 ± 1.9 ng·h/mL
  Cmax: 1.3 ± 1.3 ng/mL
  Tmax: 1 h
[6]
  AUC(0-t): 14.5 ± 4.3 ng·h/mL
  Cmax: 6.3 ± 3.2 ng/mL
[7]
  AUC(0-t): 3.9 ± 0.8 ng·h/mL
  Cmax: 3.2 ± 1.3 ng/mL
  Tmax: 0.5 h
[8]
  AUC(0-t): 1.5 ± 0.6 ng·h/mL
  Cmax: 1.2 ± 0.3 ng/mL
  Tmax: 1.67 h
male, Sprague-Dawley (Crl:CD(SD)), 10 mg/kg, t1/2, Day 1, 10 mg/kg bw, M
  half-life: 0.9 ± 0.23 h
[9]
  AUC(0-t): 25.8 ± 4.3 ng·h/mL
  Cmax: 22.6 ± 10.5 ng/mL
  Tmax: 0.5 h
male, Sprague-Dawley (Crl:CD(SD)), 30 mg/kg, t1/2, Day 1, 30 mg/kg bw, M
  half-life: 1.16 ± 0.46 h
[10]
  AUC(0-t): 188 ± 78.8 ng·h/mL
  Cmax: 198 ± 98.5 ng/mL
  Tmax: 0.5 h
[11]
  AUC(0-t): 107 ± 41.6 ng·h/mL
  Cmax: 40.3 ± 20.5 ng/mL
  Tmax: 1 h
male, Sprague-Dawley (Crl:CD(SD)), 100 mg/kg, t1/2, Day 1, 100 mg/kg bw, M
  half-life: 1.04 ± 0.04 h
male, Sprague-Dawley (Crl:CD(SD)), 100 mg/kg, t1/2, Day 28, 100 mg/kg bw, M
  half-life: 1.39 ± 0.28 h
[12]
  AUC(0-t): 15.6 ± 2.7 ng·h/mL
  Cmax: 6.8 ± 2.3 ng/mL
  Tmax: 1 h
male, Sprague-Dawley [Crl:CD(SD)], 30 mg/kg, t1/2, Day 28, 30 mg/kg bw, M
  half-life: 1.42 ± 0.28 h

— publication PMC5616206 (Toxicology Reports, 2016)
